From patent US4698344A, “1-Heteroaryl-4-aryl-pyrazolin-5-ones for use as medicaments” (priority 1984, dated 1987)

What was measured:
[1] = administered systemically (for example orally); cited from earlier work
[2] = target: T1, 5-lipoxygenase (Homo sapiens, UniProt P09917); assay: Lipoxygenase activity (LTB4 synthesis) in human PMN leukocytes stimulated with A 23187; assay type: cell-based; conditions: read-out: Inhibition of LTB4 synthesis in human PMN's
T1 construct: endogenous in cells; host or cells: human polymorphonuclear leukocytes from heparinized whole blood
T1 sequence (P09917 1-674): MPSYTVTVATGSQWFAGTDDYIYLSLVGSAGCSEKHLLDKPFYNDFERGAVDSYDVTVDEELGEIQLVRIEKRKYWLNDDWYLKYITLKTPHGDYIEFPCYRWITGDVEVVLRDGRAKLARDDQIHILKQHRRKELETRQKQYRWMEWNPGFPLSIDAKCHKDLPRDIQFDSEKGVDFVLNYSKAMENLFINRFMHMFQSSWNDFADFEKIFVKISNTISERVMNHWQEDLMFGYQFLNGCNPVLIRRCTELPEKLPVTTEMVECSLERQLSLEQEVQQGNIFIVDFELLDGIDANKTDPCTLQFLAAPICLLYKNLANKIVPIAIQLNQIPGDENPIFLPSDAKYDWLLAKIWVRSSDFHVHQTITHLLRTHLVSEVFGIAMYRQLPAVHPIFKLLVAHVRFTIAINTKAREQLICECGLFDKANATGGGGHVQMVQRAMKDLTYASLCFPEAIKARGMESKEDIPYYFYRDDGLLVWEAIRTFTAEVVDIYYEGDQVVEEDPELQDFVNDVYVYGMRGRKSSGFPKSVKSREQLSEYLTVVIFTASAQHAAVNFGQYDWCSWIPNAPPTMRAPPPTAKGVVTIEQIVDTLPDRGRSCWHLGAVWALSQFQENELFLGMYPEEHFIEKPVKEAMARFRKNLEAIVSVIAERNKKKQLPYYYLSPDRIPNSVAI
Experimental: The polymorphonuclear leukocytes of humans metabolize arachidonic acid to give 5-hydroxy-5,8,11,14-eicosatetraenoic acid (5-HETE) and leukotriene B4 (5S, 12R-dihydroxy-6-cis, 8,10-trans-14ciseicosatetraenoic acid). Inhibition of the release of 5-HETE and leukotriene B4 from leukocytes is a measure of the lipoxygenase-inhibiting effect of the compounds according to the invention.
After 15 minutes, the lipoxygenase products were extracted from the acidified incubation medium and separated by means of HPLC.

[3] = target: T2, lipoxygenase (Rattus norvegicus, UniProt P12527); assay: Lipoxygenase activity in homogenates of RBL-1 cells; assay type: biochemical; conditions: concentration 0.5-1 μg/ml; negative = inhibition
T2 construct: homogenates of RBL-1 cells; endogenous in cells; host or cells: RBL-1 (rat basophilic leukaemia) cells, homogenate
T2 sequence (P12527 1-673): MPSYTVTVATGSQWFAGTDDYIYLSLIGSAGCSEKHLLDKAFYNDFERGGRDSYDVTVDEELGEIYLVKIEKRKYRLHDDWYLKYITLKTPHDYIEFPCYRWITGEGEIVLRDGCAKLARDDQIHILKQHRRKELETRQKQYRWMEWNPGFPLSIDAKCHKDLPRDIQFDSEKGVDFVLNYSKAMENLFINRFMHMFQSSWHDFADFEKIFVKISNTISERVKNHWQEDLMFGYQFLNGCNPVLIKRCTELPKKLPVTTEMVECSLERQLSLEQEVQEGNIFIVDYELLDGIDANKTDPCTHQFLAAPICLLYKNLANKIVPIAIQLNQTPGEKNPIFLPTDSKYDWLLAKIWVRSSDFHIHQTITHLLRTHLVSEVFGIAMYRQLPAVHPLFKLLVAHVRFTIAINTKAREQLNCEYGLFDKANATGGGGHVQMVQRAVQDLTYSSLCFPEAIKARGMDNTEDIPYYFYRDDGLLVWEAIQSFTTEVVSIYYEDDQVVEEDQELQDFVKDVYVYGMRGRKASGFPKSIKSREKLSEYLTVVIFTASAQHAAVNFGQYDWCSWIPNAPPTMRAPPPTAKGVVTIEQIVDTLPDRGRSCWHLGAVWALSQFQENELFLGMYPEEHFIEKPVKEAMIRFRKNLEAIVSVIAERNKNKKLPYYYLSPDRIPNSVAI
From the text: (§1) Basophilic leukaemia cells from rats (RBL-1) synthesize both lipoxygenase and cyclooxygenase products from ^14 C-arachidonic acid with which they are supplied. […] The products formed were separated by thin layer chromatography and quantified in a scanner.

[4] = tested on: carrageenan-induced oedema of the rat paw; assay: Carrageenan-induced oedema of the rat paw; assay type: in vivo
Experimental: The antiinflammatory action of the test substances following oral administration was determined with the aid of carrageenan-induced oedema of the rat paw.
The experiments were carried out with male rats, strain: Bor:WLSW (SPF-Cpb); weight 150 to 220 g. One hour before inducing the oedema (0.1 ml of carrageenan suspension/animal, subplantar injection), the substance to be tested was administered to the animals as a suspension in tragacanth with the aid of a stomach tube; as a control, a second group of animals was treated with tragacanth without the substance.
The paw volumes were measured by the method of F. Kemper and G. Ameln Z. exp.

[5] = tested on: release of leukotrienes (SRS-A); assay: Passive peritoneal anaphylaxis (rats); assay type: in vivo, rat; conditions: 100 mg/kg perorally
Experimental: The effect of substances on the release of mediators, in particular the release of leukotrienes, is recorded with this in vivo method. […] Histamine is not released during this, so that the lipoxygenase-inhibiting action of test substances can be investigated selectively.

[6] = target: T3, cyclooxygenase (Rattus norvegicus, UniProt Q63921); assay: Cyclooxygenase activity in homogenates of RBL-1 cells; assay type: biochemical; conditions: concentration 0.5-1 μg/ml; negative = inhibition
T3 construct: homogenates of RBL-1 cells; endogenous in cells; host or cells: RBL-1 (rat basophilic leukaemia) cells, homogenate
T3 sequence (Q63921 27-602): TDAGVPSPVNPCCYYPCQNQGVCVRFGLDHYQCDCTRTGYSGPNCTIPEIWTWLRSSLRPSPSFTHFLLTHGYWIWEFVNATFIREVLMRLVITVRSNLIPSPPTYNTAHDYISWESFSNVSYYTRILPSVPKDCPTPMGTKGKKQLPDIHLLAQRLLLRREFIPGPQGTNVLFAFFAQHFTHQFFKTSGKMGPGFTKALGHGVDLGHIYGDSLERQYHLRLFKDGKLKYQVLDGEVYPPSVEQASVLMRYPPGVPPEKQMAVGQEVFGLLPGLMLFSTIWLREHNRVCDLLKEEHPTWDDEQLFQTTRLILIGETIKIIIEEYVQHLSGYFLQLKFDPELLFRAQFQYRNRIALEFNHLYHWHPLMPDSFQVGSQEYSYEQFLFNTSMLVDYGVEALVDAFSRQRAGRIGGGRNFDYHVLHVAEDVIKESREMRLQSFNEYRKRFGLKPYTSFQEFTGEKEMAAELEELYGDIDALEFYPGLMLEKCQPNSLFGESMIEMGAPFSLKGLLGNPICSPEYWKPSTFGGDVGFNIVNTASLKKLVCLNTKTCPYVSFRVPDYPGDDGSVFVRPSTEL
From the text: as §1

| Structure (SMILES) | toxic side effects (in words) [1] | inhibition at 10 µg/mL [2] [%] | Action on lipoxygenase (LO): Effect [3] [%] | ED50 ([4]; Rattus norvegicus, po, 5 h, read-out: ED50 of oedema inhibition) [mg/kg] | % inhibition of the carrageenan oedema ([4]; oral, 2.5 mg/kg, rats, 5 hours after oedema provocation) [%] | % inhibition, passive peritoneal anaphylaxis [5] [%] | Action on cyclooxygenase (CO): Effect [6] |
| --- | --- | --- | --- | --- | --- | --- | --- |
| NC1=NN(c2cccc(C(F)(F)F)c2)CC1 [BW 755C, 3-amino-1-(3-trifluoromethylphenyl)-pyrazoline] | toxic side effects |  |  |  |  |  |  |
| O=c1c(-c2ccccc2)c[nH]n1-c1ccccn1 [Example 7, 1-pyrid-2-yl-4-phenyl-pyrazolin-5-one] |  | 92 | -66 | 9.1 | 44 | 65 | +28% |
